One data set relates to E. faecalis. Kind of data set: In vitro antibacterial activity (MIC), two-fold agar-plate dilution method, E. faecalis. The format is cell-based. To be noted: Enterococcus faecalis, HI-agar, 37° C., 20 hours, read-out: MIC (minimal inhibitory concentration). As to the method:
(§1) In vitro antibacterial activity were determined by the two-fold agar-plate dilution method as described below.
(§2) One loopful of an overnight culture of each test strain in Trypticase-soy broth (10^8 viable cells per ml) was streaked on heart infusion agar (HI-agar)containing graded concentrations of representative test compound, and the minimal inhibitory concentration (MIC) was expressed in terms of mg/ml after incubation at 37° C. for 20 hours.

For data set [1], the system named is Methicillin susceptible S. aureus. Briefly: In vitro antibacterial activity (MIC), two-fold agar-plate dilution method, methicillin susceptible S. aureus. To be noted: Staphylococcus aureus, HI-agar, 37° C., 20 hours, read-out: MIC (minimal inhibitory concentration). The format is cell-based. The method, then: as §1, §2
Data set [2] can be described thus: Urinary excretion, bile excretion and plasma level after oral administration to rats. Format: in vivo, Male JCL SD rats. To be noted: rat, 20 mg/kg, fasted; for dose excreted at 24 h: 0-24 hours. As to the method:
Male JCL SD atrain rats (age, 6 weeks) were used. Test compound was suspended in 0.5% methyl cellurose solution. The rats were atarved overnight before dosing with 20 mg /kg. Urine samples were collected at 0 to 6 and 6 to 24 hours after oral administration. Bile samples were collected at same interval as that of urine samples after a polyethylene cannula was inserted into the bile duct. Plasma samples were obtained by heart puncture at specified times after dosing. Concentrations of test compounds were measured by the disc-plate diffusion method using E. coli ATCC 39188 as test organism and nutrient agar (Difco) as the test medium. The diluents for standard curves were prepared with plasma from rat for determining the plasma levels, with 1/15 M phosphate buffer (pH7.0) for determining the urinary and biliary levels. The plate were incubated at 37° C. for 18 hours and the zone of inhibition were mesured and the recovery rate was calculated by comparing with the standard.

[3] abbreviates: bile, read-out: Biliary recovery in 24 hours.
[4] abbreviates: urine, read-out: Urinary recovery in 24 hours.

SMILES strings stand for the structures. Converted amounts (≈) assume the structure as drawn. Read-outs that look alike come from different tables or passages of the source.

As for `Nc1nc(/C(=N/O)C(=O)N[C@@H]2C(=O)N3C(C(=O)O)=C(SCc4cnn[nH]4)CS[C@H]23)c(Cl)s1` [(3)], the MIC was 2100 µg/mL (≈ 4060 µM) in the data set on E. faecalis and 270 µg/mL (≈ 522 µM) in data set [1]. In addition, the dose excreted at 24 h in data set [2] (setting [3]) stood at 37.5%; in data set [2] (setting [4]), 7.62%.

As for `Nc1nc(/C(=N/O)C(=O)N[C@@H]2C(=O)N3C(C(=O)O)=C(SCc4cn[nH]c4)CS[C@H]23)c(Cl)s1` [(1)], the MIC in the data set with E. faecalis was determined as 2900 µg/mL (≈ 5620 µM); in data set [1], 250 µg/mL (≈ 485 µM). Further, the dose excreted at 24 h is 29% in data set [2] (setting [3]) and 39.7% in data set [2] (setting [4]). The molecule further registered an area under the curve (AUC) in data set [2] (plasma) of 52900 ng·h/mL. Moreover, in data set [2] (plasma), the Cmax came out at 21800 ng/mL.

On to `Nc1nc(/C(=N/O)C(=O)N[C@@H]2C(=O)N3C(C(=O)O)=C(SCc4cccnc4)CS[C@H]23)c(Cl)s1` [(2)], for which the MIC in the data set with E. faecalis was found to be 2100 µg/mL (≈ 3980 µM); in data set [1] it was 230 µg/mL (≈ 436 µM). In addition, the dose excreted at 24 h in data set [2] (setting [3]) was 19.6%; in data set [2] (setting [4]), 17%.

These data come from US6159961A, “Cephem compounds” (Fujisawa Pharmaceutical Co., Ltd., priority 1995, dated 2000).
